Where two headings read alike, the source gives them in different places.
Columns and labels:
Assay type in all cases: biochemical, E. coli
[1] = biological target: PDHc (Escherichia coli, UniProt P0AFG8); test: Inactivation of 1-lip and 3-lip PDH complexes by 2-oxo-3-alkynoic acids (overall NADH assay); design: made in house; host or cells: E. coli JRG1342 (PDHc null) with Ptac plasmid pGS501 (1-lip) or pGS523 (3-lip); details: for protection of PDHc from inactivation by pyruvate: 5 mM pyruvate, 1 mM ThDP, 5 mM MgCl2; for protection of PDHc from inactivation by pyruvate / inactivation of PDHc in the absence of ThDP: 3-lip (heptynoic) or 1-lip (butynoic) PDHc; for kapp, slow phase of inactivation / At (residual activity): 1-lip PDHc
Description: (§1) Bacterial strains and plasmids for PDHc. Derivatives of the PDHc null strain, E. coli JRG1342 contained Ptac expression plasmids encoding PDHc with E2 chains bearing three lipoyl domains (3-lip PDHc; pGS523, the wild type parental complex), or a single lipoyl domain in each E2 subunit (1-lip PDHc; pGS501), and variant 1-lip PDH complexes with mutations in the E1 gene leading to C259S (pGS457) and C259N (pGS596) substitutions (Machado et al., 1992; Machado, 1993).
Purification of PDHc. Cultures for purification of 1-lip and 3-lip PDH complexes were grown at 37° C. in LB medium containing glucose (0.2%) and ampicillin (50 μg/mL). The PDH complexes were induced by adding IPTG to 60 μM as described by Russell et al. (1992). Cells were disrupted by ultrasonic treatment after preincubation with lysozyme (0.6 mg/mL final concentration) for 15 min. The PDHc was sedimented by ultracentrifugation (100,000×g for 3 h) and further purified by chromatography on a
Sephacryl S-400 HR column. Fractions containing PDHc were pooled and treated with ammonium sulfate to 70% saturation. The enzyme was dissolved in buffer A (20 mM potassium phosphate, pH 7.8, 2 mM Na2 EDTA, 1 mM PMSF, and 1 mM benzamidine.HCl) then dialyzed against the same buffer. The PDH complexes were stored in buffer A at -20° C.
Activity and related measurements on PDHc. The overall enzymatic reaction of the PDH complex was assayed using a Varian DMS 300 spectrophotometer or the Cobas Bio (Roche Diagnostics, Somerville, N.J.) automated centrifugal analyzer, monitoring the pyruvate-dependent reduction of NAD^+ at 340 nm. The reaction medium contained in 1 mL (DMS 300) or 0.25 mL (Cobas-Bio) test volume: 0.1 M Tris-HCl, pH 8.0; 1 mM MgCl2; 2 mM sodium pyruvate; 2.5 mM NAD^+; 0.052-0.2 mM coenzyme A; 0.2 mM ThDP; and 2.6 mM DTT at 27° C. The reaction was initiated either by adding enzyme to a mixture of all other components, or by adding CoA.
One unit of activity is defined as the amount of NADH produced (μmol) per min per mg protein. The activity of resolved E1 was measured after reconstitution with excess E2-E3 subcomplex using the NADH assay for PDHc activity.
Inactivation of 1-lip and 3-lip PDH complexes and resolved E1 component by 2-oxo-3-alkynoic acids. Intact 1-lip or 3-lip PDH complexes (0.050-0.1 mg) or resolved E1 component (0.05-0.09 mg) were incubated in the dark with 5 mM MgCl2, […] of 2-oxo-3-alkynoic acids in 20 mM KH2 PO4 buffer, pH 7.5 at room temperature in a total volume 0.5 mL. The initial activity (100%) was assayed prior to the addition of 2-oxo-3-alkynoic acids. Samples (50 μL) were withdrawn periodically and diluted into 1 mL of assay solution, containing all components necessary for assay of the overall activity. The activity of untreated enzyme was stable during the time of inactivation.

[2] = biological target: T1, C259S variant of 1-lip PDHc (Escherichia coli, UniProt P0AFG8, C260S); test: Inactivation of C259S variant of 1-lip PDHc; details: butynoic acid at 1 mM
T1 construct: made in house; host or cells: E. coli JRG1342 (PDHc null), Ptac plasmid pGS457
Procedure: (§2) FIG. 6. Inactivation of 1-lip PDHc and its C259N and C259S variants by 2-oxo-3-butynoic acid. 1-lip PDHc (0.162 mg/mL) or the C259N and C259S variants of 1-lip PDHc (0.162 mg/mL) in 20 mM KH2 PO4 buffer, pH 7.5, containing 1 mM ThDP and 5 mM MgCl2 were incubated in the absence (curve 1: 1-lip PDHc and C259N variant) or in the presence of 1 mM of 2-oxo-3-butynoic acid (curve 2: the C259N variant; curve 3: 1-lip PDHc and the C259S variant) in a total volume 0.5 mL in the dark. At different times, aliquots of 50 μL were withdrawn and the overall activity was measured as described in FIG. 1A.
as §1
(§3) Inactivation of 1-lip and 3-lip PDH complexes and resolved E1 component by 2-oxo-3-alkynoic acids. […]

[3] = biological target: T2, resolved E1 (Escherichia coli, UniProt P0AFG8); test: Non-oxidative formation of acetoin and acetolactate by resolved E1
T2 construct: made in house; host or cells: resolved from PDHc expressed in E. coli JRG1342
Procedure: Assay for the non-oxidative formation of acetoin and acetolactate by resolved E1. The reaction mixture contained in 0.8 mL of 50 mM KH2 PO4 buffer, pH 7.5: ThDP (1 mM); MgCl2 (2 mM); pyruvate (2 mM) and resolved E1 (0.04-0.1 mg). After 2 h at 37° C. the reaction was stopped by the addition of either 0.1 mL of 2.5 N NaOH (acetoin assay), or 0.02 mL of 6 N HCl (acetolactate assay), according to Kuwana et al. (1968). Tubes for acetolactate measurement were incubated for an additional 2 h at 37° C. to decarboxylate the acetolactate to acetoin. Acetoin was determined according to Westerfeld (1945). The activity is defined as nmoles of acetoin formed per min per mg protein.

[4] = biological target: T3, C259N variant of 1-lip PDHc (Escherichia coli, UniProt P0AFG8, C260N); test: Inactivation of C259N variant of 1-lip PDHc; details: butynoic acid at 1 mM
T3 construct: made in house; host or cells: E. coli JRG1342 (PDHc null), Ptac plasmid pGS596
Procedure: as §2, §1, §3

[5] = E1 treated with 3.7 mM inhibitor, At = 11.5%
[6] = E1 with 11.5% overall activity remaining

T2 sequence (P0AFG8 2-887): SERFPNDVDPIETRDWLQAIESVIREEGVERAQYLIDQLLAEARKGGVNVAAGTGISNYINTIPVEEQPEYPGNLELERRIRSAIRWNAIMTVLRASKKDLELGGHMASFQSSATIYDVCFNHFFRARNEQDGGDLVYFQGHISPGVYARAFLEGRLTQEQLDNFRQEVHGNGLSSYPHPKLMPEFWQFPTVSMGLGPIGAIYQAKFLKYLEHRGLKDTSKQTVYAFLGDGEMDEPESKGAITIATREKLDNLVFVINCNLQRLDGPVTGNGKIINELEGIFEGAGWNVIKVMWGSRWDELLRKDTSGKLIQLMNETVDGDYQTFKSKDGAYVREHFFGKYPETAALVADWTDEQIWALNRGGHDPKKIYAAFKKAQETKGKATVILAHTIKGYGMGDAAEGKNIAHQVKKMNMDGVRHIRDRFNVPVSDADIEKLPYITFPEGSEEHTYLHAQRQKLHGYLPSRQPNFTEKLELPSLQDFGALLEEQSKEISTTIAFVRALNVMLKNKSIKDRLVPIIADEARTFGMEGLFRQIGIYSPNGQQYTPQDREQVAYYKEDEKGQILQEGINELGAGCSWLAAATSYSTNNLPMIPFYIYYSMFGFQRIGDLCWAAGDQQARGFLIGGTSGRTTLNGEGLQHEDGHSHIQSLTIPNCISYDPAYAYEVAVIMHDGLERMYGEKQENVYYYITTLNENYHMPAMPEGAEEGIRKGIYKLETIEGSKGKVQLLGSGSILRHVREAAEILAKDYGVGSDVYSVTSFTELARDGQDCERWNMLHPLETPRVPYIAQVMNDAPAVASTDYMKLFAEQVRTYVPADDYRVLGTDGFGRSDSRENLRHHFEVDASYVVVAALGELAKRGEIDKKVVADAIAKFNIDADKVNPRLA
PDHc, sequence (P0AFG8 2-887): as above
T3 sequence (P0AFG8 2-887 C260N): as the sequence (P0AFG8 2-887) above, with C259N counted along it
T1 sequence (P0AFG8 2-887 C260S): as the sequence (P0AFG8 2-887) above, with C259S counted along it

SMILES: CCCC#CC(=O)C(=O)O [2-oxo-3-heptynoic acid, 2-Oxo-3-heptynoic acid]
- Ki [1]: 2850 µM
- protection of PDHc from inactivation by pyruvate [1]: failed to protect
- inactivation of PDHc in the absence of ThDP [1]: still inactivated to the same extent, but at a slower rate
- protection from inactivation by DTT ([1]; 3-lip PDHc, 5 mM DTT): partial protection
- kinact/KI ([1]; pH 7.5, read-out: ki/Ki PDHc): 2.83 M⁻¹ s⁻¹
- reactivation of inactivated 3-lip PDHc by hydroxylamine ([1]; prolonged incubation): failure to reactivate

SMILES: C#CC(=O)C(=O)O [2-oxo-3-butynoic acid, 2-Oxo-3-butynoic acid]
- inactivation of C259S variant [2]: inactivated
- Acetoin production [3, 5]: 1.52 ± 0.08 nmol/min/mg protein
- Acetolactate production [3, 5]: 0.51 ± 0.083 nmol/min/mg protein
- Acetoin production relative to uninhibited E1 [3, 6]: 30%
- Acetolactate production relative to uninhibited E1 [3, 6]: 36%
- inactivation of C259N variant [4]: inactivated
- Ki [1]: 7.9 µM
- inhibition / inactivation of PDHc (in words) [1]: irreversibly inactivates
- k for inactivation of PDHc ([1]; 0.11 mM inhibitor): 0.69 min⁻¹
- protection of PDHc from inactivation by pyruvate [1]: partially protected
- kapp, slow phase of inactivation ([1]; 0.1 mM inhibitor): 0.062 min⁻¹
- kapp, slow phase of inactivation ([1]; 0.5 mM inhibitor): 0.053 min⁻¹
- kapp, slow phase of inactivation ([1]; 1.0 mM inhibitor): 0.056 min⁻¹
- At (residual activity) ([1]; absence of pyruvate): 20%
- At (residual activity) ([1]; presence of 5 mM pyruvate): 60%
- inactivation of PDHc in the absence of ThDP [1]: partial inactivation
- extent of inactivation ([1]; 3-lip PDHc): 99.62%
- restoration of activity after dilution ([1]; 3-lip PDHc, 20-fold dilution, 50 min incubation in overall reaction mixture): no restoration of activity
- PDHc activity at new plateau, of original activity ([1]; after a fresh portion of inhibitor was added): 6-8%
- PDHc activity at plateau ([1]; first portion of inhibitor, residual activity): about 30%
- kinact/KI ([1]; pH 7.5, second-order rate constant for inactivation, read-out: ki/Ki PDHc (converted)): 1730 M⁻¹ s⁻¹
- Ki ([1]; read-out: Ki PDHc, PDHc (1-lip PDHc)): 7.9 µM

Source: patent US6204220A, “Substituted 2-oxo-3-alkynoic acids and methods of use thereof” (Rutgers, The State University of New Jersey, priority 1999, dated 2001)
